Experimental data taken from ChEMBL document CHEMBL3885861, “Open TG-GATES”.

Species: Rattus norvegicus
Assay: Open TG-GATES - Regimen: Daily Repeat
Type: toxicity, organism-based, Sprague-Dawley
Set-up: regimen Daily Repeat, gender Male, age 6 weeks
Details: in vivo, po, 6 mg/kg, route gavage, dose level Low; for APTT / Bas / Eos / Fbg / Hb / Ht / Lym / MCH / MCHC / MCV / Mono / Neu / PT / Plat / RBC / Ret / WBC: tissue Blood
[1] = 72 h, tissue Kidney, time 3 day
[2] = 72 h, tissue Plasma, time 3 day

`CC(C)NNC(=O)c1ccncc1` [IPRONIAZID] showed a TERMINAL_BW (72 h, time 3 day) of 205.6 g, an APTT (72 h, time 3 day) of 20.8 s and a Bas (72 h, time 3 day) of 0%. The Eos (72 h, time 3 day) was 1%, the Fbg (72 h, time 3 day) was 309.2 mg/dL and the Hb (72 h, time 3 day) was 13.5 g/dL. It also gave a Ht (72 h, time 3 day) of 39.1%, a Lym (72 h, time 3 day) of 78.4% and an MCH (72 h, time 3 day) of 21.3 pg. The MCHC (72 h, time 3 day) was 34.4%, the MCV (72 h, time 3 day) was 61.9 fL and the Mono (72 h, time 3 day) was 2.2%. It also gave a Neu (72 h, time 3 day) of 17.2%, a PT (72 h, time 3 day) of 16.2 s and a Plat (72 h, time 3 day) of 123.8 x10_4/uL. The RBC (72 h, time 3 day) was 632.6 x10_4/ul, the Ret (72 h, time 3 day) was 6.8% and the WBC (72 h, time 3 day) was 92 x10_2/uL. It also gave a KIDNEY_L [1] of 0.9 g, a KIDNEY_R [1] of 0.9 g and a KIDNEY_TOTAL [1] of 1.8 g. The LIVER (72 h, tissue Liver, time 3 day) was 9.6 g, the A/G [2] was 1.4 and the ALP [2] was 1667 IU/L. For the same compound, the ALT [2] was 37.4 IU/L, the AST [2] was 73.8 IU/L and the BUN [2] was 17.2 mg/dL. For the same compound, the CRE [2] was 0.2 mg/dL, the Ca [2] was 10.6 mg/dL and the Cl [2] was 108.8 meq/L. The DBIL [2] was 0 mg/dL, the GLC [2] was 187.2 mg/dL and the IP [2] was 7.2 mg/dL. For the same compound, the K [2] was 4.3 meq/L, the LDH [2] was 266.6 IU/L and the Na [2] was 143.2 meq/L. It also gave a PL [2] of 146.2 mg/dL, an RALB [2] of 3.2 g/dL and a TBIL [2] of 0.002 mg/dL. For the same compound, the TC [2] was 77.2 mg/dL, the TG [2] was 102.2 mg/dL and the TP [2] was 5.6 g/dL. It also gave a gamma-GTP [2] of 1.2 IU/L, a TERMINAL_BW ([…], time 7 day) of 237.7 g and a TERMINAL_BW ([…], time 14 day) of 274.7 g. It also gave a TERMINAL_BW ([…], time 28 day) of 367.4 g, an APTT ([…], time 7 day) of 21.4 s and a Bas ([…], time 7 day) of 0%. It also gave an Eos ([…], time 7 day) of 0.8%, a Fbg ([…], time 7 day) of 315.6 mg/dL and a Hb ([…], time 7 day) of 13.4 g/dL. For the same compound, the Ht ([…], time 7 day) was 37.5%, the Lym ([…], time 7 day) was 83.6% and the MCH ([…], time 7 day) was 21.3 pg. For the same compound, the MCHC ([…], time 7 day) was 35.6%, the MCV ([…], time 7 day) was 59.7 fL and the Mono ([…], time 7 day) was 2.2%. It also gave a Neu ([…], time 7 day) of 12.6%, a PT ([…], time 7 day) of 15.4 s and a Plat ([…], time 7 day) of 114 x10_4/uL. It also gave an RBC ([…], time 7 day) of 628.6 x10_4/ul, a Ret ([…], time 7 day) of 5.1% and a WBC ([…], time 7 day) of 110.8 x10_2/uL. The APTT ([…], time 14 day) was 22.2 s, the Bas ([…], time 14 day) was 0% and the Eos ([…], time 14 day) was 1%. For the same compound, the Fbg ([…], time 14 day) was 289.4 mg/dL, the Hb ([…], time 14 day) was 13.8 g/dL and the Ht ([…], time 14 day) was 40%. The Lym ([…], time 14 day) was 81.6%, the MCH ([…], time 14 day) was 20.1 pg and the MCHC ([…], time 14 day) was 34.6%. It also gave an MCV ([…], time 14 day) of 58 fL, a Mono ([…], time 14 day) of 2.2% and a Neu ([…], time 14 day) of 14.8%. The PT ([…], time 14 day) was 15.7 s, the Plat ([…], time 14 day) was 118.3 x10_4/uL and the RBC ([…], time 14 day) was 690.8 x10_4/ul. The Ret ([…], time 14 day) was 4.7%, the WBC ([…], time 14 day) was 112.4 x10_2/uL and the APTT ([…], time 28 day) was 22.6 s. For the same compound, the Bas ([…], time 28 day) was 0%, the Eos ([…], time 28 day) was 1% and the Fbg ([…], time 28 day) was 317 mg/dL. For the same compound, the Hb ([…], time 28 day) was 13.7 g/dL and the Ht ([…], time 28 day) was 39%.
